Measured values reported in patent US8377899B2, “Composition for treatment of cervix cancer” (priority 2006, dated 2013).

What was measured:
[1] = tested on: HeLa cells; test: Cell morphology after single and combination therapy (phase contrast microscope); assay type: cell-based; settings: 7th day of the treatment
From the text: The present inventors cultured the cells in normal media additionally for 7 days to observe morphological changes.

[2] = tested on: HeLa cells; test: Long-term combination therapy of E6 siRNA and cisplatin, trypan blue cell count; assay type: cell-based; settings: 7th day; siRNA 100 nM transfected twice and/or cisplatin 1.25 μM for 4 days
Procedure: To evaluate cytotoxic effect of the long-term combination therapy of synthetic E6 siRNA and cisplatin chemotherapy on cervix cancer cells, HeLa cells were co-treated for a long period of time.
Then, the single therapy group (treated with 18E6-1 siRNA, 18E6-2 siRNA or cisplatin alone) and the combination therapy group (treated with cisplatin and 18E6-1 siRNA or 18E6-2 siRNA) were compared. To obtain the maximum RNAi efficiency, siRNA transfection was repeated after 24 hours from the first transfection. For the transfection, 13 μl of opti-MEM (Gibco, USA) and 2 μl of oligofectamine were added into a 1.5 ml E-tube. To the other 1.5 ml E-tube were added 100 nM of siRNA and opti-MEM to make total volume […]. 5 minutes later, the content of the E-tube containing oligofectamine was transferred into the other E-tube to make the total volume 200 μl, which stood by for 20 minutes to form a complex. […] On the 7th day of culture, the cells were recovered by treating with trypsin, stained with 0.3% trypan blue solution and counted with hemocytometer.
The cells were cultured in normal growth medium for additional 7 days, and harvested by treating them with trypsin. The cells were stained with 0.3% trypan blue and counted with hemocytometer (FIG. 11). […]

[3] = tested on: HeLa-Luc cells; test: Cervix cancer xenograft model, luciferase bioluminescence tumor size; assay type: in vivo, balb-C nude mouse; settings: after 2 weeks; siRNA 2 mg/kg and/or cisplatin 0.5 mg/kg, intraperitoneal, every other day by turns, 7 times
Procedure: To generate the cervix cancer xenograft model, 5×10^6 HeLa-Luc cells were injected subcutaneously into a 5 week old female balb-C nude mouse. 7 days later, tumor generation was confirmed. Then, the mouse was treated with siRNA (2 mg/kg) and cisplatin (0.5 mg/kg) every other day by taking turns, 7 times (intraperitoneal injection).
Isofluran was used as an anesthetic for in vivo imaging. Luciferase activity, which increases with the growth of a tumor, was measured 15 minutes after intraperitoneal injection of luciferin.
Bioluminescence signal released by luciferase was represented as the unit of photons/second/steradian/cm2, and the luciferase signal increases as the tumor grew.

[4] = tested on: HeLa cells; test: Western blotting of p53 in HeLa cells treated with cisplatin; assay type: cell-based; settings: 40 μM of cisplatin
Procedure: To investigate the effect of cisplatin on cervix cancer cells, HeLa cells were treated with cisplatin. 24 hours before the treatment, 1×10^6 cells were distributed in 100 mm culture dish and cultured at 37° C. with 5% CO2 and 100% humidity. Then, the cells were treated with 40 μM of cisplatin. 24 hours later, Western blotting was performed to measure the level of p53.

[5] = tested on: HeLa cells; test: MTT assay, cytotoxic effect of cisplatin; assay type: cell-based; settings: cisplatin 0.625-80 μM for 48 hours
Procedure: The present inventors also investigated cytotoxic effect of cisplatin on HeLa cells by MTT assay. HeLa cells were treated with different concentrations of cisplatin (0.625, 1.25, 2.5, 5, 10, 25, 40, and 80 μM) for 48 hours, followed by MTT assay to measure the cell growth inhibitory effect.

[6] = tested on: HeLa cells; test: Apoptosis, annexin V and propidium iodide flow cytometry; assay type: cell-based; settings: 7th day of the treatment, attached cells
From the text: To examine apoptosis in the cells treated with 18E6-1 siRNA or 18E6-2 siRNA, the cells attached on the 7th day of the treatment were collected, stained with annexin V and propidium iodide (PI) and analyzed by flow cytometry. Apoptosis rates between the single therapy group and the combination therapy group were compared.

[7] = tested on: HeLa cells; test: Senescence, SA β-Gal activity staining; assay type: cell-based
Procedure: The present inventors further investigated whether the combination therapy of cisplatin with 18E6 siRNAs induced HeLa cell senescence. The inventors measured SA β-Gal activity on the 7th day of the treatment. The cells were washed with PBS using a senescence detection kit (BIoVision, USA) and treated with SA-β-gal staining solution at 37° C. for 12 hours. The cells stained with blue were observed under microscope (×100-200).
Three photographs of the cells were taken randomly to investigate the stained cells (FIG. 17).

Structure (SMILES): N.N.[Cl][Pt][Cl] [cisplatin]
- cell growth observed by microscope [1]: grown regularly
- cell growth (cell number) [2]: not significant
- tumor size [3]: not much different
- expression level of p53 [4]: dramatically increased
- time at which the level of p53 reached the peak [4]: 24 h
- time for which the high level of p53 was constantly observed [4]: 48 h
- cell survival rate [5]: reduced cisplatin dose dependently
- apoptosis [6]: not increased
- number of stained cells in three random photographs ([7]; 7th day of the treatment (FIG. 17)): Only a small amount of cells were stained
- SA-β-Gal stained (blue) cells ([7]; 7th day of the treatment, microscope (FIG. 16)): some of the blue cells
